biological target: T1, Hexokinase-4 (Homo sapiens, UniProt P35557); experiment: Activation of recombinant human His6-tagged glucokinase by G6PDH-coupled spectrophotometry
T1 sequence (P35557 whole entry): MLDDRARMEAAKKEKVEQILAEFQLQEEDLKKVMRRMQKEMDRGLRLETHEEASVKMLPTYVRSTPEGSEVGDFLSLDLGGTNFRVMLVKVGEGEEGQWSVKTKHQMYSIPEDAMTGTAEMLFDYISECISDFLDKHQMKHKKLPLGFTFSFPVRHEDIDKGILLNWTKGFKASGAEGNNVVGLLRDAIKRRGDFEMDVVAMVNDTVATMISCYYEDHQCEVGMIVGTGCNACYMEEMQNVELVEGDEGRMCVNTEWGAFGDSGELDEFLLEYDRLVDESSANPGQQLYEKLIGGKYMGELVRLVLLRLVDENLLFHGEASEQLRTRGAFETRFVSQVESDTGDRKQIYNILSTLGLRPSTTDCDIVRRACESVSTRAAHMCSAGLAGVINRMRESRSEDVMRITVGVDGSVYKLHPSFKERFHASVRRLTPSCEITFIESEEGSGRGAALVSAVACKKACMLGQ

SMILES | EC50 [nM]
O=C(Nc1ncc(-c2cn(CCO)nn2)s1)[C@H](CC1CCOCC1)c1ccc(S(=O)(=O)C2CC2)cc1 | 220
COC(=O)[C@@H](NC(=O)c1cnc(NC(=O)C(CC2CCOCC2)c2ccc(S(=O)(=O)C3CC3)cc2)s1)C(C)C (mixture of isomers) | 1440
CCN(CC)C(=O)Cn1cc(-c2cnc(NC(=O)C(CC3CCOCC3)c3ccc(S(=O)(=O)C4CC4)cc3)s2)nn1 (racemic) | 210
O=C(O)CCNC(=O)c1cnc(NC(=O)C(CC2CCOCC2)c2ccc(S(=O)(=O)C3CC3)cc2)s1 (racemic) | 1800
O=C(Cn1cc(-c2cnc(NC(=O)C(CC3CCOCC3)c3ccc(S(=O)(=O)C4CC4)cc3)s2)nn1)NC1CC1 (racemic) | > 20000
O=C(Nc1ncc(-c2cn(CC(=O)N3CCOCC3)nn2)s1)C(CC1CCOCC1)c1ccc(S(=O)(=O)C2CC2)cc1 (racemic) | 640
O=C(O)CCn1cc(-c2cnc(NC(=O)C(CC3CCOCC3)c3ccc(S(=O)(=O)C4CC4)cc3)s2)nn1 (racemic) | 1350
CN1CCN(C(=O)Cn2cc(-c3cnc(NC(=O)C(CC4CCOCC4)c4ccc(S(=O)(=O)C5CC5)cc4)s3)nn2)CC1 (racemic) | 790
CC(C)[C@H](NC(=O)c1cnc(NC(=O)C(CC2CCOCC2)c2ccc(S(=O)(=O)C3CC3)cc2)s1)C(=O)O (mixture of isomers) | 11300
COC(=O)CCNC(=O)c1cnc(NC(=O)C(CC2CCOCC2)c2ccc(S(=O)(=O)C3CC3)cc2)s1 (racemic) | 520
COC(=O)[C@H](CC(C)C)NC(=O)c1cnc(NC(=O)C(CC2CCOCC2)c2ccc(S(=O)(=O)C3CC3)cc2)s1 (mixture of isomers) | 1520

Second part, the compound after the results:

EC50 [nM] | SMILES
290 | O=C(Nc1ncc(-c2cn(CCOCc3ccccc3)nn2)s1)C(CC1CCOCC1)c1ccc(S(=O)(=O)C2CC2)cc1 (racemic)
170 | CNC(=O)Cn1cc(-c2cnc(NC(=O)C(CC3CCOCC3)c3ccc(S(=O)(=O)C4CC4)cc3)s2)nn1 (racemic)
180 | O=C(Nc1ncc(-c2cn(CCO)nn2)s1)C(CC1CCOCC1)c1ccc(S(=O)(=O)C2CC2)cc1 (racemic)
> 20000 | CCNC(=O)Cn1cc(-c2cnc(NC(=O)C(CC3CCOCC3)c3ccc(S(=O)(=O)C4CC4)cc3)s2)nn1 (racemic)
350 | CCOC(=O)CCn1cc(-c2cnc(NC(=O)C(CC3CCOCC3)c3ccc(S(=O)(=O)C4CC4)cc3)s2)nn1 (racemic)
330 | CCOC(=O)Cn1cc(-c2cnc(NC(=O)C(CC3CCOCC3)c3ccc(S(=O)(=O)C4CC4)cc3)s2)nn1 (racemic)
> 20000 | CC(C)C[C@H](NC(=O)c1cnc(NC(=O)C(CC2CCOCC2)c2ccc(S(=O)(=O)C3CC3)cc2)s1)C(=O)O (mixture of isomers)
300 | CN(C)C(=O)Cn1cc(-c2cnc(NC(=O)C(CC3CCOCC3)c3ccc(S(=O)(=O)C4CC4)cc3)s2)nn1 (racemic)
450 | CCOC(=O)CCCn1cc(-c2cnc(NC(=O)C(CC3CCOCC3)c3ccc(S(=O)(=O)C4CC4)cc3)s2)nn1 (racemic)
